Measured values taken from US12690608B2, “Arecoline salt and preparation method and product thereof” (priority 2020, dated 2026).

Legend:
[1] = Surface temperature of heating element while heating the heat-not-burn cigarette (infrared thermal imager)
Procedure: The heat-not-burn cigarette prepared by the above preparation method is heated by an aerosol generation apparatus (by means of resistance heating), and surface temperature of a heating element in a working state is tested by an infrared thermal imager.

smokers = assay: Comparison test on puff experience (scores by multiple smokers); format: in vivo; settings: same content (3%)
Text: An arecoline salt and an arecoline hydrobromide of the same content (3%) are selected for puff experience tests, and scores are given from 0 to 5 in terms of pleasure, increased heart rate, ruddy face, body fever, slight sweating and so on by evaluation of multiple smokers.

[2] = Comparison test on atomization (smoking machine, Cambridge filter, conversion rate k); format: physicochemical; settings: concentrations 1-15%
[3] = Physicochemical analysis: appearance on standing at room temperature; settings: salt prepared at molar ratio of arecoline to benzoic acid of 1; viscous yellow oily substance

COC(=O)C1=CCCN(C)C1.O=C(O)c1ccccc1 [arecoline salt, benzoate of arecoline]
Temperature at which the arecoline salt in the cigarette can be atomized ([1]; in heat-not-burn cigarette, generates a smokable aerosol): 150-250 °C
Puff duration (temperature) 1 s ([1]; surface temperature of heating element, resistance heating, heat-not-burn cigarette containing arecoline salt, puff duration 1 s): 153.1 °C
Puff duration (temperature) 2 s ([1]; surface temperature of heating element, resistance heating, heat-not-burn cigarette containing arecoline salt, puff duration 2 s): 228.3 °C
Puff duration (temperature) 3 s ([1]; surface temperature of heating element, resistance heating, heat-not-burn cigarette containing arecoline salt, puff duration 3 s): 241.1 °C
Puff experience compared with arecoline hydrobromide (pleasure, increased heart rate, ruddy face, body fever, slight sweating) (smokers): obviously superior to the arecoline hydrobromide
Conversion rate compared with arecoline hydrobromide [2]: obviously higher than that of the arecoline hydrobromide
Change of appearance when placed at room temperature [3]: darkens slowly when placed at room temperature
